Results from PubChem BioAssay (NCI).
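Grown in 96-well plates, cells were treated for 48 hours with each compound at five concentrations. Insufficient inhibition: endpoint recorded as highest concentration tested. The concentration for full growth arrest is given as TGI.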

Key:
Experiment in all cases: NCI-60 cell line screen, 48 h
BT-549 breast = test system: BT-549 breast
SW-620 colon = test system: SW-620 colon
CAKI-1 renal = test system: CAKI-1 renal
M14 melanoma = test system: M14 melanoma
SK-MEL-28 melanoma = test system: SK-MEL-28 melanoma
CCRF-CEM leukemia = test system: CCRF-CEM leukemia
HCT-116 colon = test system: HCT-116 colon
SF-268 CNS = test system: SF-268 CNS
SN12C renal = test system: SN12C renal
MDA-MB-435 = test system: MDA-MB-435
SK-OV-3 ovarian = test system: SK-OV-3 ovarian
HCT-15 colon = test system: HCT-15 colon
HT29 colon = test system: HT29 colon
SF-539 CNS = test system: SF-539 CNS
LOX IMVI melanoma = test system: LOX IMVI melanoma
UO-31 renal = test system: UO-31 renal
EKVX NSCLC = test system: EKVX NSCLC
NCI-H226 lung = test system: NCI-H226 lung
PC-3 prostate = test system: PC-3 prostate
KM12 colon = test system: KM12 colon

Row | Structure (SMILES) | TGI (BT-549 breast) [µM] | TGI (SW-620 colon) [µM] | TGI (CAKI-1 renal) [µM] | TGI (M14 melanoma) [µM] | TGI (SK-MEL-28 melanoma) [µM] | TGI (CCRF-CEM leukemia) [µM] | TGI (HCT-116 colon) [µM] | TGI (SF-268 CNS) [µM] | TGI (SN12C renal) [µM] | TGI (MDA-MB-435) [µM] | TGI (SK-OV-3 ovarian) [µM] | TGI (HCT-15 colon) [µM] | TGI (HT29 colon) [µM] | TGI (SF-539 CNS) [µM] | TGI (LOX IMVI melanoma) [µM] | TGI (UO-31 renal) [µM] | TGI (EKVX NSCLC) [µM] | TGI (NCI-H226 lung) [µM] | TGI (PC-3 prostate) [µM] | TGI (KM12 colon) [µM]
1 | O=C(/C=C1\C[C@H]2C=Nc3ccccc3C(=O)N2C1)NCCCCNC(=O)/C=C1\C[C@H]2C=Nc3ccccc3C(=O)N2C1 | 26.1 | 7.58 | 6.4 | 19.5 | 33.3 | 4.82 | 25.9 | 25 | 11.4 | 21 | 34.4 | 27.7 | 31.4 | 30.5 | 6.35 | 5.77 | 33.7 | 59.5 | 27.7 | 33.3
2 | Oc1ccccc1C=Nc1ccc(-c2nc3ccccc3[nH]2)cc1 | 54.4 | > 100 | > 100 | > 100 | > 100 | 71.5 | > 100 | > 100 | > 100 | > 100 | > 100 | > 100 | > 100 | > 100 | > 100 | > 100 | > 100 | > 100 | > 100 | > 100
